Reference: patent publication US10047067B2, “Composition for treating kidney disease comprising pyrazole derivative” (Ewha University-Industry Collaboration Foundation, priority 2012, dated 2018)

Tested on: collagen Iα1 expression in proximal tubular cells (mProx24)
Assay: Inhibitory effect on collagen Iα1 expression in proximal tubular cells (hTGF-β1 stimulated, real-time PCR)
Type: cell-based
Conditions: for mrna remaining at 0.01 µM / mrna remaining at 0.1 µM / mrna remaining at 1 µM / mrna remaining at 10 µM / inhibition at 0.01 µM / inhibition at 0.1 µM / inhibition at 1 µM / inhibition at 10 µM / IC50: Mus musculus; for mrna remaining at 0.01 µM / mrna remaining at 0.1 µM / mrna remaining at 1 µM / mrna remaining at 10 µM: Col1, mProx24, 5 ng/ml hTGF-β1 6 hrs, relative to hTGF-β1 alone = 1, read-out: Mean expression level ratio of collagen Iα1 (Col1α) to 18S rRNA; for mrna remaining at 0.01 µM / inhibition at 0.01 µM: 0.01 μM compound; for mrna remaining at 0.1 µM / inhibition at 0.1 µM: 0.1 μM compound; for mrna remaining at 1 µM / inhibition at 1 µM: 1 μM compound; for mrna remaining at 10 µM / inhibition at 10 µM: 10 μM compound; for inhibition at 0.01 µM / inhibition at 0.1 µM / inhibition at 1 µM / inhibition at 10 µM: mProx24, 100% = control without hTGF-β1, 0% = hTGF-β1 alone, read-out: expression inhibition rate (collagen Iα1); for IC50: mProx24, hTGF-β1 stimulated, read-out: IC50 (inhibition of collagen Iα1 expression)
Description: mProx24, which is a name of the proximal tubular cells derived from proximal tubule segments obtained by finely sectioning the kidney of adult C57BL6/J mice, was granted from Professor Sugaya, St. Marianna University School of Medicine, Kanagawa, Japan. mProx24 was cultured in DMEM (Dulbecco's modified Eagle's medium) supplemented with 10% fetal calf serum (FCS, Gibco), 100 U/ml penicillin, 100 μg/ml streptomycin, and 44 mM NaHCO3 at 37° C. in a 5% CO2 atmosphere. For quantitation of RNA expression, the cells were cultured in 6-well plates. When the cells grew 90% confluent, the medium was changed with a fresh 0.15% FCS (Gibco)-supplemented DMEM. Incubation in this medium for 24 hrs halted the cell growth to synchronize the growth cycle in the cells. Compounds of Examples 1 to 9 and Comparative Example were respectively dissolved in DMSO (dimethylsulfoxide) to form a concentration of 50 mM, and subjected to serial dilution to 10 mM, 1 mM, 0.1 mM, and 0.01 mM. 10 mM, 1 mM, 0.1 mM, and 0.01 mM solutions of each of the compounds of Examples 1 to 9 and Comparative Example were 1,000-fold diluted in 0.15% FCS (Gibco)-supplemented DMEM to form final concentrations of 10 μM, 1 μM, 0.1 μM, and 0.01 μM, respectively. In addition, 0 μM (DMSO 1 μL) was used. The cells were incubated for 1 hr in the dilutions and then for 6 hrs in the presence of 5 ng/ml recombinant human transforming growth factor-β1 (hTGF-β1, R&D Systems). For the control, hTGF-β1 was not used. Total RNA was extracted from mProx24 using Trizol (Invitrogen). For quantitation of mRNA expression, a reaction volume of 20 μL including cDNA transcripts, primer pairs, and SYBR Green PCR Master Mix (Applied Biosystems) was subjected to real-time PCR with the aid of StepOnePlus (Applied Biosystems) (real-time PCR condition: 95° C., 10 min→40 thermal cycles of denaturation at 95° C. for 15 sec and primer annealing at 60° C. for 1 min→95° C. for 15 sec, 60° C. for 1 min, and 95° C. for 15 sec to measure a melting curve). Quantitation was normalized to 18S rRNA expression level. A pair of primers for mouse collagen Iα1 were 5′-[…]-3′(SEQ ID NO: 13) and 5′-[…]-3′ (SEQ ID NO: 14). Forward and reverse primers for mouse r18S rRNA were 5′-CGAAAGCATTTGCCAAGAAT-3′ (SEQ ID NO: 11) and 5′-AGTCGGCATCGTTTATGGTC-3′ (SEQ ID NO: 12), respectively.
Experiment results are given in Tables 3 to 12 and FIGS. 4 to 13. Tables 3 to 12 and FIGS. 4 to 13 show inhibitory effects of the compounds of Examples 1 to 9 and Comparative Example 1 on collagen Iα1 expression in proximal tubular cells.
Data of Tables 3 to 12 and FIGS. 4 to 13 are measurements of experiments repeated three to five times for each concentration, and are expressed as mean±standard error (SE). Statistic comparison among the groups was analyzed by ANOVA and Fisher's least significant difference test, with significance at p<0.05. *P<0.05 vs. WT, †P<0.05 vs. DM.
In Tables 3 to 12, mean values of expression level ratios of collagen Iα1 (Col1α) to 18S rRNA (18S), and % inhibition against collagen Iα1 expression for each group are shown, together with IC50 value (μM). In this regard, % inhibition means relative inhibition to 100% for the control and 0% for the group that was treated with hTGF-β1 but not with any of the compounds of Examples or Comparative Example.

Row | SMILES | mrna remaining at 0.01 µM [%] | mrna remaining at 0.1 µM [%] | mrna remaining at 1 µM [%] | mrna remaining at 10 µM [%] | inhibition at 0.01 µM [%] | inhibition at 0.1 µM [%] | inhibition at 1 µM [%] | inhibition at 10 µM [%] | IC50 [nM] | expression of the extracellular matrix, collagen Iα1 (Col1α), in proximal tubular cells (result in words)
1 | COc1cccc(-c2cc(O)n(-c3ccccn3)n2)c1 [Compound 18-001, 3-(3-Methoxyphenyl)-1-(Pyridin-2-yl)-1H-Pyrazol-5-ol] | 74.8 | 69.8 | 64.2 | 34.5 | 31 | 37.1 | 44 | 80.5 | 3190 | 
2 | Oc1cc(-c2ccc(Br)cc2)nn1-c1ccccn1 [Compound 18-066, 3-(4-bromophenyl)-1-(pyridin-2-yl)-1H-pyrazol-5-ol] | 78.5 | 71.7 | 72.6 | 58.3 | 30.2 | 39.8 | 38.5 | 58.6 | 2140 | 
3 | CC(=O)Oc1cc(-c2ccc(Br)cc2)nn1-c1ccccn1 [Compound 18-067, 3-(4-bromophenyl)-1-(pyridin-2-yl)-1H-pyrazol-5-yl acetate] | 70 | 60.7 | 56.2 | 32.5 | 35.6 | 46.6 | 52 | 80.1 | 299 | 
4 | Oc1cc(-c2cccc(I)c2)nn1-c1ccccn1 [Compound 18-082, 3-(3-iodophenyl)-1-(pyridin-2-yl)-1H-pyrazol-5-ol] | 71 | 60.5 | 39.1 | 31.2 | 39.5 | 53.8 | 83 | 93.7 | 105 | 
5 | Oc1cc(COc2ccc3ccccc3c2)nn1-c1ccccn1 [Compound 18-095, 3-((naphthalen-3-yloxy)methyl)-1-(pyridin-2-yl)-1H-pyrazol-5-ol] | 69.9 | 66.3 | 50.4 | 26.8 | 37.2 | 41.7 | 61.4 | 90.6 | 227 | 
6 | Oc1cc(-c2ccccc2-c2ccc3c(c2)OCO3)nn1-c1ccccn1 [Compound 18-177, 3-(2-(benzo[d][1,3]dioxol-5-yl)phenyl)-1-(pyridin-2-yl)-1H-pyrazol-5-ol] | 96 | 83.9 | 74.2 | 43.8 | 5.46 | 22 | 35.2 | 76.7 | 1310 | 
7 | Oc1cc(-c2ccc(-c3ccccc3)cc2)nn1-c1ncccn1 [Compound 18-186, 3-(biphenyl-4-yl)-1-(pyrimidin-2-yl)-1H-pyrazol-5-ol] | 82.5 | 56.9 | 58.6 | 58.3 | 22.5 | 55.4 | 53.2 | 53.6 | 78 | 
8 | c1ccc(COc2c(Cc3ccccc3)c(-c3ccccc3)nn2-c2ccccn2)cc1 [Compound 18-233, 3-Phenyl-4-Benzyl-5-Benzyloxy-1-(2-Pyridinyl)Pyrazole, reference compound] | 93.3 | 75.7 | 71.2 | 65.6 | 8.23 | 29.9 | 35.4 | 42.3 | 10200 | decreased the expression level
9 | CCCc1c(/C=C/c2ccc(O)c(OC)c2)nn(-c2ccccn2)c1O [Compound 18-273, 3-{2-(4-hydroxy-3-methoxyphenyl)vinyl}-4-propyl-1-(2-pyridinyl)pyrazol-5-ol] | 40.8 | 83.5 | 83.2 | 46 | 82.6 | 23 | 23.4 | 75.3 | 1780 | 
